Test system: hearing loss associated with otosclerosis
Details: hearing loss patients; 2 mg strontium ranelate daily for 6 months; symptoms measured monthly
Protocol: Hearing Loss. Hearing loss patients generally experience progressive loss of hearing.
The following populations having the symptom stated are treated with a dosing schedule of 2 mg strontium ranelate daily for 6 months.
All symptoms will be measured monthly. All improvements will be recorded and assessed.

N#Cc1c(N(CC(=O)[O-])CC(=O)[O-])sc(C(=O)[O-])c1CC(=O)[O-].[Sr+2].[Sr+2] [strontium ranelate]
hearing (gains or cessation of the progression of hearing loss): some hearing gains

Source: US20080090896A1, “Strontium-Based Treatment Of Otosclerosis” (priority 2006, published 2008)
